In article PMC9413440, “An Iterative Approach Guides Discovery of the FabI Inhibitor Fabimycin, a Late-Stage Antibiotic Candidate with In Vivo Efficacy against Drug-Resistant Gram-Negative Infections” (ACS Central Science, 2022):

Tested on: human red blood cells
Assay: Human red blood cell hemolysis
Assay type: cell-based
Settings: 200 μM; 2 hours at 37 °C
Method: drug is tested in duplicate. Compounds were diluted from 10mM DMSO stocks to 5 µM in mouse or human plasma (BioreclamationIVT, Baltimore, MD). The dialysis plate (Rapid Equilibrium Dialysis (RED) device; Thermo Scientific, Waltham, MA) was prepared by adding pH 7.4 phosphate buffer to one chamber of the RED device and dosing solution to the other chamber. The plate was sealed with an adhesive tape and incubated at 37 °C while shaking for 4 hours. Equal volumes of post-dialysis samples were removed from both the plasma and the buffer chambers into separate microcentrifuge tubes, and equal volumes (100µL) of fresh phosphate buffer and plasma were added to the tubes, respectively. […] Percentage binding is determined using the following equation: Binding % = (Concentration of test compound in plasma at equilibrium (Cpe) – Concentration of test compound in buffer at equilibrium (Cb)) / Cpe x 100. […]
Next, 10 µL of washed erythrocyte suspension was added to each tube and sealed. […] Absorbance was measured at 540 nm. […]
from Charles River were used. […] No additional randomization was used to allocate the experimental groups; blinding was not performed for subsequent quantitation.
The MTD of a single dosage of a given compound was determined before evaluating the MTD of multiple dosages. […]
weeks (single dose). The single-dose MTDs were determined first. […]

## Cc1c(CN(C)C(=O)/C=C/c2cnc3c(c2)CC[C@H](N)C(=O)N3)oc2ccccc12 [fabimycin]
  lysis of human red blood cells: nonhemolytic
